Reference: patent US7030267B2, “Cycloproply β-amino acid derivatives” (Warner-Lambert Company, LLC, priority 2003, dated 2006)

For `CC1(C)CC1(CN)C(=O)O` (stereo not shown), the melting point was 254 to 256 °C.

`CCC(CC)C1CC1(CN)C(=O)O` (stereo not shown) showed a melting point of 255 to 257 °C.

In the case of `NCC1(C(=O)O)CC1C1CCCCC1` (stereo not shown), the melting point is reported as 270 °C (dec.).

In the case of `NCC1(C(=O)O)CC12CCCC2` (stereo not shown), the melting point is reported as 231 to 235 °C (dec.).

Compound `CC(C)C1CC1(CN)C(=O)O.Cl` (stereo not shown) has a melting point of 245 to 246 °C.

In the case of `CCCC1(CCC)CC1(CN)C(=O)O` (stereo not shown), the melting point is reported as 255 to 257 °C.

In the case of `Cl.NCC1(C(=O)O)CC12CCCCC2` (stereo not shown) [Example 1, 1-AMINOMETHYL-SPIRO[2.5]OCTANE-1-CARBOXYLIC ACID HYDROCHLORIDE], the melting point is reported as > 250 °C (dec.).

With `CC(C)CC1CC1(CN)C(=O)O.Cl` (stereo not shown) [Example 6, 1-AMINOMETHYL-2-ISOBUTYL-CYCLOPROPANECARBOXYLIC ACID HYDROCHLORIDE] the melting point was > 220 °C (dec.).

`Cl.NCC1(C(=O)O)CC12CCCCC2` (stereo not shown) [Example 14] showed a melting point of 240 to 242 °C.

Compound `CC(C)CC1CC1(CN)C(=O)O.Cl` (stereo not shown) [Example 15] has a melting point of 254 to 255 °C.
